Experimental data as given in patent US11807693B2 (priority 2014, dated 2023).
Starred links: 1 amine or outer side, 2 acyl side, 3 side chain; linkers in the order of their positions; H or OH if unused. Non-standard residues stand in square brackets, D forms with d. Residues, ends and D or L forms follow the SMILES beside them. No end group written: not given here. *: point of attachment. dBip = N[C@H](Cc1ccc(-c2ccccc2)cc1)C(=O)O; Oic = O=C(O)[C@@H]1C[C@@H]2CCCC[C@@H]2N1; Phe(4-Cl) = N[C@@H](Cc1ccc(Cl)cc1)C(=O)O; Phe(4-I) = N[C@@H](Cc1ccc(I)cc1)C(=O)O; γGlu = O=C(O)[C@H](CCC(=O)[*:2])N[*:1]; NMeR = CN[C@@H](CCCNC(=N)N)C(=O)O; Tridecanoyl = CCCCCCCCCCCCC(=O)*; hArg = N=C(N)NCCCC[C@H](N)C(=O)O; Cha = N[C@@H](CC1CCCCC1)C(=O)O; NMeL = CN[C@@H](CC(C)C)C(=O)O; Tle = CC(C)(C)[C@H](N)C(=O)O; β3hV = CC(C)[C@H](N)CC(=O)O; Nle = CCCC[C@H](N)C(=O)O; Orn = NCCC[C@H](N)C(=O)O; AEEA = NCCOCCOCC(=O)O; Aib = CC(C)(N)C(=O)O

Tests used:
Format in all cases: in vitro ADME
[1] = In vitro stability in rat liver homogenate; settings: tissue homogenate; for Stability at 4 hours (% Remaining) Liver: 5 μM
Outline: (§1)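 Incubations: 5 μM apelin peptide, 37° C., 4 hr, in rat plasma, liver or kidney homogenate. Read-out via high resolution LC-MS after MeOH/internal standard precipitation and centrifugation.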

[2] = In vitro stability in rat plasma; settings: for Stability at 4 hours (% Remaining) Plasma: 5 μM
Outline: as §1

[3] = In vitro stability in rat kidney homogenate; settings: rat, tissue homogenate; for Stability at 4 hours (% Remaining) Kidney: 5 μM
Method: Apelin peptides were spiked into rat plasma, liver homogenate, and kidney homogenate, which were obtained from commercial sources, to a final concentration of 5 μM. The samples were then incubated at 37° C. over a period of 4 hr. […] In a typical experiment, an aliquot of 100 μL of sample was taken from the incubation vial, followed by addition of 300 μL of MeOH containing internal standard. The quenched sample was centrifuged at 5500 g for 15 min after 15 min vortex in room temperature. The supernatant was then analyzed by high resolution LC-MS. […] In vitro plasma, […], and kidney stability results are shown below in Table 14.

| remaining at 4 h, 5 μM [2] | remaining at 4 h, 5 μM [3] | remaining at 4 h, 5 μM [1] | Compound | Stability at 4 hours (% Remaining) Liver [1] | Stability at 4 hours (% Remaining) Plasma [2] | Stability at 4 hours (% Remaining) Kidney [3] |
| --- | --- | --- | --- | --- | --- | --- |
|  |  |  | 110 (QRPRLSHKGPMPF; source: /note="N-term MerPr(10KmPEGacetamide)") [compound 110] | 61 % Remaining | 36 % Remaining | 27 % Remaining |
|  |  |  | 120 (QRP[NMeR][Cha]SHKG[Oic][Nle][Aib][Phe(4-Cl)]; not fully specified (N-terminus); ends and bridges not checked; also: 10K mPEG acetamide on N-terminal MerPr) [compound 120] | 61 % Remaining | 68 % Remaining | <1.0 % Remaining |
| < 1% | < 1% |  | CCCC[C@H](NC(=O)[C@@H]1CCCN1C(=O)CNC(=O)[C@H](CCCCN)NC(=O)[C@H](Cc1c[nH]cn1)NC(=O)[C@H](CO)NC(=O)[C@](C)(CC(C)C)NC(=O)[C@H](CCCCNC(=N)N)NC(=O)[C@]1(C)CCCN1C(=O)[C@H](CCCNC(=N)N)NC(=O)[C@H](CCC(N)=O)NC(C)=O)C(=O)N1CCC[C@H]1C(=O)N[C@@H](Cc1ccc(Cl)cc1)C(=O)O [compound 69] |  |  |  |
| 0% | 0.1% | 35.5% | CCCC[C@H](NC(=O)[C@@H]1CCCN1C(=O)CNC(=O)[C@H](CCCCN)NC(=O)[C@H](Cc1c[nH]cn1)NC(=O)[C@H](CO)NC(=O)[C@](C)(CC(C)C)NC(=O)[C@H](CCCNC(=N)N)N(C)C(=O)[C@@H]1CCCN1C(=O)[C@H](CCCCNC(=N)N)NC(=O)[C@H](CCC(N)=O)NC(C)=O)C(=O)N1CCC[C@H]1C(=O)N[C@@H](Cc1ccc(Cl)cc1)C(=O)O [compound 71] |  |  |  |
| > 90% | 13.8% | 66.8% | CCCCCCCCCCCCC(=O)N[C@@H](CCC(=O)NCCOCCOCC(=O)NCCOCCOCC(=O)N[C@@H](CCCN)C(=O)N[C@@H](Cc1ccccc1)C(=O)N[C@@H](CCCCNC(=N)N)C(=O)N[C@@H](CCCCNC(=N)N)C(=O)N[C@H](CC(=O)N[C@@H](CCCCNC(=N)N)C(=O)N1CCC[C@H]1C(=O)N[C@@H](CCCCNC(=N)N)C(=O)N[C@@H](CC1CCCCC1)C(=O)N[C@@H](CO)C(=O)N[C@@H](Cc1c[nH]cn1)C(=O)N[C@@H](CCCCN)C(=O)NCC(=O)N1[C@H](C(=O)N[C@@H](CCCC)C(=O)N2CCC[C@H]2C(=O)N[C@@H](Cc2ccc(Cl)cc2)C(=O)O)C[C@@H]2CCCC[C@@H]21)C(C)C)C(=O)O [compound 307] ({Tridecanoyl-γGlu-AEEA-AEEA}-[Orn]F[hArg][hArg][β3hV][hArg]P[hArg][Cha]SHKG[Oic][Nle]P[Phe(4-Cl)]-OH) |  |  |  |
| 76% | 55% | 0% | CCCCCCCCCCCCC(=O)N[C@@H](CCC(=O)NCCOCCOCC(=O)NCCOCCOCC(=O)N[C@@H](CCCCNC(=N)N)C(=O)N[C@H](CCCNC(=N)N)C(=O)N[C@@H](CCC(N)=O)C(=O)N[C@@H](CCCC)C(=O)N1CCC[C@H]1C(=O)N[C@H](CCCNC(=N)N)C(=O)N(C)[C@@H](CC(C)C)C(=O)N[C@@H](CO)C(=O)N[C@@H](C)C(=O)N[C@@H](CCCCN)C(=O)NCC(=O)N1[C@H](C(=O)N[C@@H](Cc2ccc(I)cc2)C(=O)N2CCC[C@H]2C(=O)N[C@H](Cc2ccc(-c3ccccc3)cc2)C(=O)O)C[C@@H]2CCCC[C@@H]21)C(=O)O [compound 328] ({Tridecanoyl-γGlu-AEEA-AEEA}-[hArg][dR]Q[Nle]P[dR][NMeL]SAKG[Oic][Phe(4-I)]P[dBip]-OH) |  |  |  |
| 76% | 1% | 12% | CCCCCCCCCCCCC(=O)N[C@@H](CCC(=O)NCCOCCOCC(=O)NCCOCCOCC(=O)N[C@@H](CCCC)C(=O)N[C@@H](CCC(N)=O)C(=O)N[C@@H](CCCNC(=N)N)C(=O)N1CCC[C@H]1C(=O)N[C@@H](CCCCNC(=N)N)C(=O)N[C@@H](CC1CCCCC1)C(=O)N[C@@H](CO)C(=O)N[C@@H](Cc1c[nH]cn1)C(=O)N[C@@H](CCCCN)C(=O)NCC(=O)N1[C@H](C(=O)N[C@@H](CCCC)C(=O)N2CCC[C@H]2C(=O)N[C@@H](Cc2ccc(Cl)cc2)C(=O)O)C[C@@H]2CCCC[C@@H]21)C(=O)O [compound 338] ({Tridecanoyl-γGlu-AEEA-AEEA}-[Nle]QRP[hArg][Cha]SHKG[Oic][Nle]P[Phe(4-Cl)]-OH) |  |  |  |
| 93% | 2% | 13% | CCCCCCCCCCCCC(=O)N[C@@H](CCC(=O)NCCOCCOCC(=O)NCCOCCOCC(=O)N[C@@H](CCCNC(=N)N)C(=O)N[C@@H](CCC(N)=O)C(=O)N[C@@H](CCCC)C(=O)N1CCC[C@H]1C(=O)N[C@@H](CCCCNC(=N)N)C(=O)N[C@@H](CC1CCCCC1)C(=O)N[C@@H](CO)C(=O)N[C@@H](Cc1c[nH]cn1)C(=O)N[C@@H](CCCCN)C(=O)NCC(=O)N1[C@H](C(=O)N[C@@H](CCCC)C(=O)N2CCC[C@H]2C(=O)N[C@@H](Cc2ccc(Cl)cc2)C(=O)O)C[C@@H]2CCCC[C@@H]21)C(=O)O [compound 339] ({Tridecanoyl-γGlu-AEEA-AEEA}-RQ[Nle]P[hArg][Cha]SHKG[Oic][Nle]P[Phe(4-Cl)]-OH) |  |  |  |
| 88% | 0% | 6% | CCCCCCCCCCCCC(=O)N[C@@H](CCC(=O)NCCOCCOCC(=O)NCCOCCOCC(=O)N[C@@H](CCCNC(=N)N)C(=O)N[C@@H](CCC(N)=O)C(=O)N[C@@H](CCCNC(=N)N)C(=O)N1CCC[C@H]1C(=O)N[C@@H](CCCC)C(=O)N[C@@H](CC1CCCCC1)C(=O)N[C@@H](C)C(=O)N[C@@H](Cc1c[nH]cn1)C(=O)N[C@@H](CCCCN)C(=O)NCC(=O)N1[C@H](C(=O)N[C@@H](CCCC)C(=O)N2CCC[C@H]2C(=O)N[C@@H](Cc2ccc(Cl)cc2)C(=O)O)C[C@@H]2CCCC[C@@H]21)C(=O)O [compound 344] ({Tridecanoyl-γGlu-AEEA-AEEA}-RQRP[Nle][Cha]AHKG[Oic][Nle]P[Phe(4-Cl)]-OH) |  |  |  |
| 87% | 0% | 2% | CCCCCCCCCCCCC(=O)N[C@@H](CCC(=O)NCCOCCOCC(=O)NCCOCCOCC(=O)N[C@@H](CCC(N)=O)C(=O)N[C@@H](CCCNC(=N)N)C(=O)N1CCC[C@H]1C(=O)N[C@@H](CCCCNC(=N)N)C(=O)N[C@@H](CC(C)C)C(=O)N[C@@H](CO)C(=O)N[C@@H](Cc1c[nH]cn1)C(=O)N[C@@H](CCCCN)C(=O)NCC(=O)N1[C@H](C(=O)N[C@@H](CCCC)C(=O)N2CCC[C@H]2C(=O)N[C@@H](Cc2ccc(Cl)cc2)C(=O)O)C[C@@H]2CCCC[C@@H]21)C(=O)O [compound 356] ({Tridecanoyl-γGlu-AEEA-AEEA}-QRP[hArg]LSHKG[Oic][Nle]P[Phe(4-Cl)]-OH) |  |  |  |
| 34.5% | 0.5% | 1.5% | CCCCCCCCCCCCC(=O)N[C@@H](CCC(=O)NCCOCCOCC(=O)NCCOCCOCC(=O)N[C@@H](CCC(N)=O)C(=O)N[C@@H](CCCNC(=N)N)C(=O)N1CCC[C@H]1C(=O)N(C)[C@@H](CCCNC(=N)N)C(=O)N[C@@H](CC1CCCCC1)C(=O)N[C@@H](CO)C(=O)N[C@@H](Cc1c[nH]cn1)C(=O)N[C@@H](CCCCN)C(=O)NCC(=O)N1CCC[C@H]1C(=O)N[C@@H](CCCC)C(=O)N1CCC[C@H]1C(=O)N[C@@H](Cc1ccc(Cl)cc1)C(=O)O)C(=O)O [compound 361] ({Tridecanoyl-γGlu-AEEA-AEEA}-QRP[NMeR][Cha]SHKGP[Nle]P[Phe(4-Cl)]-OH) |  |  |  |
| 90% | 28% | 81% | CCCCCCCCCCCCC(=O)N[C@@H](CCC(=O)NCCOCCOCC(=O)NCCOCCOCC(=O)N[C@H](CCC(N)=O)C(=O)N[C@@H](CCCCNC(=N)N)C(=O)N1CCC[C@H]1C(=O)N[C@H](CCCNC(=N)N)C(=O)N[C@@H](CC1CCCCC1)C(=O)N[C@@H](CO)C(=O)N[C@@H](Cc1c[nH]cn1)C(=O)N[C@@H](CCCCN)C(=O)N[C@H](C(=O)N1[C@H](C(=O)N[C@@H](CCCC)C(=O)N2CCC[C@H]2C(=O)N[C@@H](Cc2ccc(Cl)cc2)C(=O)O)C[C@@H]2CCCC[C@@H]21)C(C)(C)C)C(=O)O [compound 371] ({Tridecanoyl-γGlu-AEEA-AEEA}-[dQ][hArg]P[dR][Cha]SHK[Tle][Oic][Nle]P[Phe(4-Cl)]-OH) |  |  |  |
|  | 64% |  | CCCCCCCCCCCCC(=O)N[C@@H](CCC(=O)NCCOCCOCC(=O)NCCOCCOCC(=O)N[C@H](CCC(N)=O)C(=O)N[C@@H](CCCCNC(=N)N)C(=O)N1CCC[C@H]1C(=O)N[C@H](CCCNC(=N)N)C(=O)N[C@@H](CC1CCCCC1)C(=O)N[C@@H](CO)C(=O)N[C@@H](Cc1ccc(O)cc1)C(=O)N[C@@H](CCCCN)C(=O)NCC(=O)N1[C@H](C(=O)N[C@@H](CCCC)C(=O)N2CCC[C@H]2C(=O)N[C@@H](Cc2ccc(Cl)cc2)C(=O)O)C[C@@H]2CCCC[C@@H]21)C(=O)O [compound 373] ({Tridecanoyl-γGlu-AEEA-AEEA}-[dQ][hArg]P[dR][Cha]SYKG[Oic][Nle]P[Phe(4-Cl)]-OH) |  |  |  |
| 65% | 99% | 4% | CCCCCCCCCCCCC(=O)N[C@@H](CCC(=O)NCCOCCOCC(=O)NCCOCCOCC(=O)N[C@H](CCC(N)=O)C(=O)N[C@@H](CCCNC(=N)N)C(=O)N1CCC[C@H]1C(=O)N(C)[C@@H](CCCNC(=N)N)C(=O)N[C@@H](CC1CCCCC1)C(=O)N[C@@H](CO)C(=O)N[C@@H](Cc1c[nH]cn1)C(=O)N[C@@H](CCCCN)C(=O)NCC(=O)N1[C@H](C(=O)N[C@@H](CCCC)C(=O)N2CCC[C@H]2C(=O)N[C@@H](Cc2ccc(Cl)cc2)C(=O)O)C[C@@H]2CCCC[C@@H]21)C(=O)O [compound 377] ({Tridecanoyl-γGlu-AEEA-AEEA}-[dQ]RP[NMeR][Cha]SHKG[Oic][Nle]P[Phe(4-Cl)]-OH) |  |  |  |
